Columns and labels:
Water solubility = type: physicochemical
spliceosome (SF3B1) = spliceosome (SF3B1) (Homo sapiens, UniProt O75533+Q7RTV0); conditions: in vivo; cited from earlier work
Sequence of spliceosome (SF3B1) (Q7RTV0 whole entry, canonical isoform): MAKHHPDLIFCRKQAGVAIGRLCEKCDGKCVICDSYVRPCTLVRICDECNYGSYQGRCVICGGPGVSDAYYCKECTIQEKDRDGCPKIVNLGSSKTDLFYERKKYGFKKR
Sequence of spliceosome (SF3B1) (Q15393 whole entry, further chain, canonical isoform): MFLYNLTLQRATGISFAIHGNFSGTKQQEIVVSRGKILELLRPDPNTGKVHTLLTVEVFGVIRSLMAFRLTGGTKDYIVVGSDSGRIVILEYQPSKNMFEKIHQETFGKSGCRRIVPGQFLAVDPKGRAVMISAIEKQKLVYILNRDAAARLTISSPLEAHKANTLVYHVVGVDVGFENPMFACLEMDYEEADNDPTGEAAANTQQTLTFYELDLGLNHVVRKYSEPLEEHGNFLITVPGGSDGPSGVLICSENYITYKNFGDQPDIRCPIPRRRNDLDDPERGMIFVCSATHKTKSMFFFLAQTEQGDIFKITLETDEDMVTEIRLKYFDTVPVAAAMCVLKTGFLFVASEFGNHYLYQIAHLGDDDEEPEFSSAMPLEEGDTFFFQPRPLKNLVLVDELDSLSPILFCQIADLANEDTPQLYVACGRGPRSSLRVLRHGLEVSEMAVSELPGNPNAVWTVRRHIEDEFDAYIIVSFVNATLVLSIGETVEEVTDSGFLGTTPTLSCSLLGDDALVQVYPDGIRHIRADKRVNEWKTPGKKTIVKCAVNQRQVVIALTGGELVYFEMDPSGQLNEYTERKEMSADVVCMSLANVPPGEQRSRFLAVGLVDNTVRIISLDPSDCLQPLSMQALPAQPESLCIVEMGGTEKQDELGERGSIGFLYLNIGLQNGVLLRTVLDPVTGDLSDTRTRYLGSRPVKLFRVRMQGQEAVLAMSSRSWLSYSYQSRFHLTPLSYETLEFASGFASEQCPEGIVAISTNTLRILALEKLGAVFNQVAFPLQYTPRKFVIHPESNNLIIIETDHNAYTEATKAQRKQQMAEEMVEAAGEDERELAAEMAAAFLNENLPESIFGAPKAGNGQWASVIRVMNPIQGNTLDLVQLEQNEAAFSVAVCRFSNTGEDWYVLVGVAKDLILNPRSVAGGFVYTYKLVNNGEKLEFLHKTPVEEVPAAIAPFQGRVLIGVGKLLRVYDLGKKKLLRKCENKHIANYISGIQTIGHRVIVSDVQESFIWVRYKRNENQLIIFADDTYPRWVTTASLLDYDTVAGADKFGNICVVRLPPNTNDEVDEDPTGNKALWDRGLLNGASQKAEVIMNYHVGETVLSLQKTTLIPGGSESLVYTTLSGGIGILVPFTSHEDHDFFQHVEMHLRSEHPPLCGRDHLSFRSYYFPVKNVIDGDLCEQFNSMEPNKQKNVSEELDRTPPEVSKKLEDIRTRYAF
Sequence of spliceosome (SF3B1) (Q9BWJ5 whole entry, further chain, canonical isoform): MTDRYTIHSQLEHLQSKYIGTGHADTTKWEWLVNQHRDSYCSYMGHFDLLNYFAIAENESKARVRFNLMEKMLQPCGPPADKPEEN
Sequence of spliceosome (SF3B1) (O75533 whole entry, canonical isoform): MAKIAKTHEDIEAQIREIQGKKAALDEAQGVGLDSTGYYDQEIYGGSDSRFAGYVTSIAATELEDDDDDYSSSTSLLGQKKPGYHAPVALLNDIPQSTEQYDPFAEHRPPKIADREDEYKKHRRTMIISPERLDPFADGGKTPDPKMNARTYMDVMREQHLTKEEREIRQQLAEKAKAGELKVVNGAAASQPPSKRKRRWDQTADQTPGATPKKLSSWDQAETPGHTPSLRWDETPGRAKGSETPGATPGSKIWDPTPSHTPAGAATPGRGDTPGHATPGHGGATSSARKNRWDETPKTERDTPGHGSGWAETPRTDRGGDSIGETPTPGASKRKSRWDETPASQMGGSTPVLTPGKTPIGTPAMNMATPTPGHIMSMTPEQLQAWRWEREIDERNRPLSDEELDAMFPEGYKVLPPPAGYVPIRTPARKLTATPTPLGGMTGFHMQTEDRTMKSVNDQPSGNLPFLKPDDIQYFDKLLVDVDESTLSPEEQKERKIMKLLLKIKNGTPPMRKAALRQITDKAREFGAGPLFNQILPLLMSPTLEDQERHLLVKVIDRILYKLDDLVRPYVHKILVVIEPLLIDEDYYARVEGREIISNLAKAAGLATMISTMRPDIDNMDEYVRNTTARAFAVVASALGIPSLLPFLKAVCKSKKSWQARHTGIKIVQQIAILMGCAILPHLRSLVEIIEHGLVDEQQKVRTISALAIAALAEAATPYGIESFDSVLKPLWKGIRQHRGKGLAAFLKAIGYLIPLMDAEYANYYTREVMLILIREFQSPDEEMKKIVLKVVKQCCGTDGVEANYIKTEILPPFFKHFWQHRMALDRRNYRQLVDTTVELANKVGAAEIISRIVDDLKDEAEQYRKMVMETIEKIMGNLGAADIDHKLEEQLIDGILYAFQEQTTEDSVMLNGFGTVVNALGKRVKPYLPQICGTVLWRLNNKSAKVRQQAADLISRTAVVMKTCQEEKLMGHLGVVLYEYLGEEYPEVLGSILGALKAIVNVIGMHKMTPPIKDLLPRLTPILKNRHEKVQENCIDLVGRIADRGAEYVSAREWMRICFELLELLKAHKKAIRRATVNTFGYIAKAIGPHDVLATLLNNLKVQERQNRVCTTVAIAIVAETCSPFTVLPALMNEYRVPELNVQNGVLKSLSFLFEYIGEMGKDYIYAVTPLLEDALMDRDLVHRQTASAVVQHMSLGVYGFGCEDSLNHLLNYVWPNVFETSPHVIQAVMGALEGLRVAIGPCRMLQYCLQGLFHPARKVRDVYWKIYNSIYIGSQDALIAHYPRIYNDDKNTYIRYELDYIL

SMILES | water solubility (Water solubility) | outcome of testing in human (spliceosome (SF3B1))
COc1ccc(-c2cc(=O)c3c([O-])cc(OP(=O)(O)O)c(-c4cc(-c5cc(=O)c6c([O-])cc(OP(=O)(O)O)cc6o5)ccc4OC)c3o2)cc1.[Na+].[Na+] [Compound 2] | considerably higher than that of the parent compound isoginkgetin | –
CC[C@H](O)[C@@H](C)[C@H]1O[C@@H]1C[C@@](C)(O)/C=C/C=C(\C)[C@H]1OC(=O)C[C@H](O)CC[C@@](C)(O)[C@@H](OC(=O)N2CCN(C3CCCCCC3)CC2)/C=C/[C@@H]1C [E7107] | – | stopped because of problems of toxicity
